# Data taken from patent publication US8476264B2, “N-(3-(2-amino-6,6-difluoro-4,4A,5,6,7,7A-hexahydro-cyclopenta[E][1,3]oxazin-4-yl)-phenylamides as BACE1 inhibitors” (Hoffmann-La Roche Inc., priority 2011, dated 2013).
# Columns and labels:
# [1] = in vivo effect; settings: % of control @ 30 mg/kg p.o.
# [2] = Detection of glutathione conjugates; assay type: in vitro ADME, human; design: key: NF: in vitro no significant adduct formation relative to control; settings: in vitro, relative to control
# Excerpt: Detection of Glutathione Conjugates
# The assay conditions for the detection of glutathione conjugates follow the procedure described by C. M. Dieckhaus et al.
# [3] = target: T1, recombinant human cathepsin E (Homo sapiens, UniProt P14091); assay: Cathepsin E fluorescent substrate kinetic assay; assay type: biochemical; settings: pH 4.5, substrate MR121-[…]
# T1 construct: purchased R&D Systems
# T1 sequence (P14091 54-396): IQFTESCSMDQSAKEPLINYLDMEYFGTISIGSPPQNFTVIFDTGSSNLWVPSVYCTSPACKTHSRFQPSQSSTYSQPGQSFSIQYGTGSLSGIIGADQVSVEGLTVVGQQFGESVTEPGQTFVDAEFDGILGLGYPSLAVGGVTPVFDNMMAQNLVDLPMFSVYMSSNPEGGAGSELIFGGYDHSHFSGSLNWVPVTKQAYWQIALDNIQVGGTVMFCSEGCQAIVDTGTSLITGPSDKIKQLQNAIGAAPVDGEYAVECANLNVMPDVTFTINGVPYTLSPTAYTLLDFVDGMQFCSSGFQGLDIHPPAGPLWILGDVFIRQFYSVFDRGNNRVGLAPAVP
# Excerpt: Cathepsin D and Cathepsin E Fluorescent Substrate Kinetic Assays
# The MR121 fluorescence assays described below are based on the fact that MR121 forms a non-fluorescent ground state complex with tryptophan. In solution this formation occurs at millimolar concentrations of tryptophan. The mechanism can be used to design a generic biochemical assay for proteases. A substrate peptide is labeled at the N-terminus with tryptophan and at the C-terminus with the fluorophore MR121 (for cathepsin D the 10 amino acid peptide […]-MR121 was used; for cathepsin E, MR121-[…] was used). In absence of protease activity, the substrates remain intact and the MR121 fluorescence is reduced by the high local Trp-concentration. If the substrates are cleaved by the enzymes the MR121 fluorescence is recovered.
# The fluorescent substrate cathepsin D and cathepsin E kinetic assays were performed at room temperature in 384-well microtiter plates (black with clear flat bottom, non binding surface plates from Corning) in a final volume of 51 μl. The test compounds were serially diluted in DMSO (15 concentrations, ⅓ dilution steps) and 1 μl of diluted compounds were mixed for 10 min with 40 μl of cathepsin D (from human liver, Calbiochem) diluted in assay buffer (100 mM sodium acetate, 0.05% BSA, pH 5.5; final concentration: 200 nM) or with 40 μl of recombinant human cathepsin E (R&D Systems) diluted in assay buffer (100 mM sodium acetate, 0.05% BSA, pH 4.5; final concentration: 0.01 nM). After addition of 10 μl of the cathepsin D substrate […]-MR121 diluted in cathepsin D assay buffer (final concentration: 300 nM) or […] cathepsin E substrate MR121-[…] diluted in cathepsin E assay buffer (final concentration: 300 nM), the plates were strongly shaken for 2 minutes. The enzymatic reaction was followed in a plate: vision reader (Perkin Elmer) (excitation wavelength: 630 nm; emission: 695 nm) for at least 30 minutes in a kinetic measurement detecting an increase of MR121 fluorescence during the reaction time. The slope in the linear range of the kinetic was calculated and the IC50 of the test compounds were determined using a four parameter equation for curve fitting.
Structure (SMILES),GSH human (glutathione adduct formation) [2],IC50 [3],in vivo effect [1]
"N#Cc1ccc(C(=O)Nc2ccc(F)c([C@@]3(CF)N=C(N)O[C@@H]4CC(F)(F)C[C@@H]43)c2)nc1 [Example 3, 5-Cyano-pyridine-2-carboxylic acid [(S)-3-((1R,2R)-2-amino-6,6-difluoro-4-fluoromethyl-4,4a,5,6,7,7a-hexahydro-cyclopenta[e][1,3]oxazin-4-yl)-4-fluoro-phenyl]-amide]",NF,> 200 µM,A (less than 50% of control @ 30 mg/kg p.o.)
"NC1=N[C@](CF)(c2cc(NC(=O)c3ccc(F)cn3)ccc2F)[C@H]2CC(F)(F)C[C@H]2O1 [Example 7, 5-Fluoro-pyridine-2-carboxylic acid [(S)-3-((1R,2R)-2-amino-6,6-difluoro-4-fluoromethyl-4,4a,5,6,7,7a-hexahydro-cyclopenta[e][1,3]oxazin-4-yl)-4-fluoro-phenyl]-amide]",NF,149 µM,A (less than 50% of control @ 30 mg/kg p.o.)
"NC1=N[C@](CF)(c2cc(NC(=O)c3cnc(C(F)F)cn3)ccc2F)[C@H]2CC(F)(F)C[C@H]2O1 [Example 24, 5-Difluoromethyl-pyrazine-2-carboxylic acid [(S)-3-((1R,2R)-2-amino-6,6-difluoro-4-fluoromethyl-4,4a,5,6,7,7a-hexahydro-cyclopenta[e][1,3]oxazin-4-yl)-4-fluoro-phenyl]-amide]",NF,> 200 µM,A (less than 50% of control @ 30 mg/kg p.o.)

# Second part, led by results:
GSH human (glutathione adduct formation) [2],IC50 [3],Structure (SMILES),in vivo effect [1]
NF,> 200 µM,"N#Cc1ccc(C(=O)Nc2ccc(F)c([C@@]3(C(F)F)N=C(N)O[C@@H]4CC(F)(F)C[C@@H]43)c2)nc1 [Example 36, 5-Cyano-pyridine-2-carboxylic acid [(S)-3-((1R,2R)-2-amino-4-difluoromethyl-6,6-difluoro-4,4a,5,6,7,7a-hexahydro-cyclopenta[e][1,3]oxazin-4-yl)-4-fluoro-phenyl]-amide]",A (less than 50% of control @ 30 mg/kg p.o.)
NF,> 200 µM,"COc1cnc(C(=O)Nc2ccc(F)c([C@@]3(C(F)F)N=C(N)O[C@@H]4CC(F)(F)C[C@@H]43)c2)cn1 [Example 42, 5-Methoxy-pyrazine-2-carboxylic acid [(S)-3-((1R,2R)-2-amino-4-difluoromethyl-6,6-difluoro-4,4a,5,6,7,7a-hexahydro-cyclopenta[e][1,3]oxazin-4-yl)-4-fluoro-phenyl]-amide]",A (less than 50% of control @ 30 mg/kg p.o.)
